Assay results published in US5846731A, “Peralkylated oligopeptide mixtures” (Torry Pines Institute for Molecular Studies, priority 1993, dated 1998).
Converted amounts (≈) assume the structure as drawn.

System: Staphylococcus aureus (ATCC 29213)
Experiment: Antimicrobial activity against S. aureus (growth inhibition, OD 620 nm)
Type: cell-based
Conditions: for IC50: individual permethylated peptides; for MIC: minimum concentration to inhibit about 100 percent bacterial growth
Procedure: The two types of libraries of positional libraries of Example 5 were also scanned against Staphylococcus aureus a Gram-positive bacterium. Concentrations of those 5× permethylated peptide mixtures that inhibited cellular growth by 50 percent (IC50) values were determined.
The permethylated amino acid and peptides were screened against S. aureus, as described before and IC50 and MIC (minimum inhibitory concentration; minimum concentration needed to inhibit about 100 percent bacterial growth) values were determined.
Staphylococcus aureus (ATCC 29213) were grown overnight (about 18 hours) at 37° C. in Mueller-Hinton (MH) broth. This culture was reinoculated and incubated at 37° C. to reach the exponential phase of bacterial growth; i.e., a final bacterial suspension containing about 10^5 to 5×10^5 colony-forming units (CFU)/ml. The concentration of cells was established by plating 100 μl of different dilutions of the culture solution (e.g., 10^-2, 10^-3 and 10^-4) onto solid agar plates. Following an overnight (about 18 hours) incubation at 37° C., the CFU thus formed were counted on each agar plate.
96-Well tissue culture plates were utilized, with eight wells per plate containing only medium as control blanks, whereas eight other wells contained medium plus cells as a positive growth control. These controls were used to detect possible medium contamination and to provide a measure of uninhibited growth of the microorganisms.
For determination of IC50 values (concentrations necessary to inhibit 50 percent growth of bacteria), peralkylated oligopeptide sets were added to the bacterial suspension at concentrations noted before. The plates were incubated overnight (about 18 hours) at 37° C., and the optical density (OD) determined at 620 nm after different times of incubation. IC50 Values were then determined from the OD data.

[1] = Staphylococcus aureus, ATCC29213, Assay 1
[2] = Staphylococcus aureus, ATCC29213, Assay 2

Molecule	IC50 (Assay 1)	MIC (Assay 1)	IC50 (Assay 2)	MIC (Assay 2)	IC50 [1]	IC50 [2]	MIC [1]
Ac-FFFFFF-NH2 [N--Ac--hexaPhe, N-acetyl hexaPhe amide]	> 500000 nM	> 500 µM	> 500000 nM	> 500 µM			
CNC(=O)[C@H](Cc1ccccc1)[N+](C)(C)C [PerA--F, permethylated Phe N-methylamide]		> 500 µM		> 500 µM			
Cc1onc(-c2ccccc2)c1C(=O)N[C@@H]1C(=O)N2[C@@H]1SC(C)(C)[C@@H]2C(=O)O [Oxacillin, oxacillin]				0.125 µM (≈ 0.0502 µg/mL)	42 nM	370 nM	0.125 µM (≈ 0.0502 µg/mL)
CC[C@H]1OC(=O)[C@H](C)[C@@H](O[C@H]2C[C@@](C)(OC)[C@@H](O)[C@H](C)O2)[C@H](C)[C@@H](O[C@@H]2O[C@H](C)C[C@H](N(C)C)[C@H]2O)[C@](C)(O)C[C@@H](C)C(=O)[C@H](C)[C@@H](O)[C@]1(C)O [Erythromycin, erythromycin]				0.5 µM (≈ 0.367 µg/mL)	184 nM	134 nM	0.5 µM (≈ 0.367 µg/mL)
